According to patent US9266922B2, “Antigen peptide and uses thereof” (priority 2011, dated 2016):
Like-named read-outs stand apart in the source and are kept apart here. Residues, ends and D or L forms follow the SMILES beside them.

Assays:
HLA-A*0201 [1] = target: T1, HLA-A*0201 (Homo sapiens, UniProt P04439, D140Y/D185E/D98H/E176V/E277Q/G131W/G231S/I119V/I121R/I166T/I218V/L300P/L318F/N151K/N90K/P208A/P217A/Q86G/Q94H/R138H/R169H/T345S); experiment: iTOPIA EDS MHC peptide binding assay; details: HLA-A*0201 monomer, relative to positive control peptide, 21° C. for 18 h
Text: MHC peptide binding assay using iTOPIA EDS
Microtiter 96 well plates containing HLA class I MHC monomer loaded with the human β2-microglobulin and a “placeholder” peptide were used to evaluate peptide binding, affinity, and off-rate.
The 502 nectin4 nonapeptides were first evaluated for their ability to bind to each MHC molecule in the peptide binding assay. In this assay, the placeholder peptides were stripped from the MHC class I monomer complexes coated on plastic, which leaves the MHC class I heavy chain available as a binding partner for candidate peptides in the presence of human β2-microglobulin.
Peptide binding was performed at 21° C. for 18 h. Revelation was done using an anti HLA-ABC-FITC mAb that binds to refolded MHC complex conformation. The relative fluorescent intensity was read using a fluorimeter (Molecular Devices, SpectraMax Gemini, Sunnyvale, Calif., USA).
Peptides with a binding>30% of the positive control peptide were selected as “binder” and subsequently analyzed for affinity (ED50) and off-rate (T1/2).

HLA-A*0201 [2] = target: T1, HLA-A*0201; experiment: biochemical; assay type: binding
HLA-A*0201 [3] = target: T1, HLA-A*0201; experiment: iScore calculation (iTOPIA system software); details: multiparametric score of binding, off-rate and affinity
[4] = target: T2, HLA A*0201 on CEM.T2 cell line (Homo sapiens, UniProt P04439, D140Y/D185E/D98H/E176V/E277Q/G131W/G231S/I119V/I121R/I166T/I218V/L300P/L318F/N151K/N90K/P208A/P217A/Q86G/Q94H/R138H/R169H/T345S); experiment: Cellular binding assay, HLA stabilization on CEM.T2 cells; assay type: cell-based; details: 100 μM peptide, 37° C. for 4 h, FACS anti HLA-A2; relative to HBV positive control peptide
T2 construct: This cell line expresses HLA A*0201 but is deficient for TAP transporter; endogenous in cells; host or cells: CEM.T2 (T2) cell line
Method: The CEM.T2 cell line (T2) is defective in the processing of proteins for presentation by MHC class 1 molecules. This cell line expresses HLA A*0201 but is deficient for TAP transporter. T2 is classically used to assess the Peptide/HLA-A*0201 Complex Stability[H. W. Nijman et al., 1993]
For HLA-A2*0201 stabilization, T2 cells (2×10^5/well) were incubated in serum-free RPMI (Gibco®-France) with 100 μM of selected peptide, at 37° C. for 4 h. Cells were washed two times with PBS supplemented with 1% BSA and stained with fluorescein isothiocyanate-conjugated anti HLA-A2 (Clone BB7.2) (BD Bioscience Pharmingen-France-) at 4° C. for 45 min. After 3 washes, cells were fixed in PBS supplemented with 2% paraformaldehyde and analyzed by FACS (FACScan, BD Bioscience). The percentage of peptide binding was calculated as follows: % Binding={(MFI peptide sample−MFI Neg control)/(MFI Pos control−MFI Neg control)}×100
Negative control was done without peptide.

[5] = target: T2, HLA A*0201 on CEM.T2 cell line; experiment: Cellular dissociation assay on CEM.T2 cells; assay type: cell-based; details: after Brefeldin A 1 h and 3 h in serum-free RPMI at 37° C. (4 h)
Method: Cellular Dissociation Assay
After HLA-A2*0201 stabilization with peptides at 37° C. for 4 h, T2 cells were incubated for 1 h, in serum-free RPMI containing Brefeldin A (10 μg/ml), an inhibitor of the transport of secretory and lysosomal proteins [G. J. Strous et al., 1993]. After 3 washes, T2 cells were incubated for 3 h in serum-free RPMI at 37° C. Binding was then measured by FACS and after 4 h incubation. Percentage of Residual Binding (% RB) was calculated as follows: […]

HLA-A*0201 [6] = target: T1, HLA-A*0201; experiment: F-Score ranking (iTOPIA and CEM T2); details: overall ranking by iTOPIA and CEM T2 assays, nectin4 and reference peptides together

CC(C)C[C@H](NC(=O)[C@@H](N)CC(C)C)C(=O)N[C@@H](C)C(=O)N[C@@H](CO)C(=O)N[C@@H](Cc1ccccc1)C(=O)N[C@H](C(=O)NCC(=O)N[C@@H](CCCNC(=N)N)C(=O)N[C@@H](CS)C(=O)O)[C@@H](C)O [Peptide 21] (H-LLASFTGRC-OH; N-terminus and C-terminus assumed)
% Binding (HLA-A*0201 [1]): 91% | EC50 (HLA-A*0201 [2]; FIG. 2A, peptide concentration 10^−4 to 10^−9 M, read-out: estimated dose to reach 50% maximal binding (ED50)): ~100 nM | EC50 (HLA-A*0201 [2]; peptide concentration giving 50% of optimal binding, 10^−4 to 10^−9 M, 21° C. for 18 h, read-out: Affinity (ED50)): 600 nM | iScore (HLA-A*0201 [3]): 0.727 | CEM.T2 % Binding [4]: 44% | CEM.T2 % Residual Binding [5]: 86% | RANK F-Score (HLA-A*0201 [6]): 11
